Source: patent publication US20080014133A1, “Extraction Of Radionuclides By Crown Ether-Containing Extractants” (priority 2004, published 2008)

What was measured:
Format in all cases: physicochemical
[1] = Extraction of cesium under dynamic conditions (7.2)
Text: The scheme of the process and the conditions of extraction of cesium by the method according to the invention are similar to those described above in 7.1, but the organic phase for extraction of cesium includes solutions DB21C7 in a concentration of about 0.05 mol/l in an organic solvent containing synthanol in an amount of 5% by volume and Fluoroheptanol n3 in an amount of about 95% by volume.
During the operation of the experimental facility radiometric monitoring devices were used to control the concentration of strontium in the refined products, re-extracts and reclaims, as well as the concentration of the crown ethers in the extracted products. The technological characteristics of the process and solubility of the crown ether (averaged values of several experiments) are given in Table 16.

[2] = Influence of nitric acid concentration on extraction of sodium; details: crown ether about 0.1 mol/l in Fluoroheptanol n3
Method: Selected for study were extractants containing crown ethers: DB18C6, DTBDB18C6, DCH18C6 or DB21C7 in a concentration of about 0.1 mol/l in Fluoroheptanol n3. Used as experimental solutions were aqueous solutions of sodium nitrate whose concentration was determined using radiometric techniques on previously added aliquot of a sodium-22 isotope.

[3] = Extraction of cations of different metals (Table 8); details: for Distribution ratios, Pb: initial 0.05 g/l; for Distribution ratios, Mn: initial 0.4 g/l; for Distribution ratios, Ru: initial 0.75 g/l; for Distribution ratios, Ba / Distribution ratios, Cr / Distribution ratios, Cs / Distribution ratios, Sr / Distribution ratios, Zr: initial 1.0 g/l; for Distribution ratios, Ba / Distribution ratios, Al: crown ether 0.05 mol/l in Fluoroheptanol n3 80% / synthanol 20%, nitric acid about 190 g/l; for Distribution ratios, Ca: initial 2.0 g/l; for Distribution ratios, Ni: initial 4.0 g/l; for Distribution ratios, Al: initial 6.0 g/l; for Distribution ratios, Fe / Distribution ratios, Na: initial 10.0 g/l; for Distribution ratios, Rare-earth: initial 25.0 g/l
Text: A process of extraction of cations of different metals from aqueous nitrate solutions was studied by processing them using the extractants according to the invention containing DCH18C6 or DB21C7 in an organic solvent comprising: Fluoroheptanol n3—80% by volume and synthanol—20% by volume at a concentration of crown ethers of 0.05 mol/l and a content of nitric acid about of 190 g/l. For comparison, the data were used given in a patent specification (U.S. Pat. No. 4,749,518, A) describing similar tests of extractants containing Crown XVI or Crown XVII with a cation exchanger—dinanylnaphthalene sulfonic acid in a matrix solution containing tributyl phosphate and kerosene.
The solutions were contacted with the extractants according to the invention in temperature-controlled ([…]) separating funnels for 5 minutes at a ratio of organic and aqueous phases of 1:1. After settling within 60 minutes, the phases were separated, and the aqueous phase was analyzed to determine the concentration of the elements.

[4] = Radiation resistance of the extractants (gamma irradiation)
Text: The radiation resistance of the extractants according to the invention used for extraction radionuclides of strontium or cesium was studied. For this purpose, reaction mixtures consisting of biphase water-organic systems containing extractants based on crown ethers DCH18C6 or DB21C7 in Fluoroheptanol n3 and aqueous nitrate waste solutions, and, for comparison, reaction mixtures containing extractants based on crown ethers Crown XVI or Crown XVII with a cation exchanger—dinanylnaphthalene of sulfonic acids in a matrix solution comprising tributyl phosphate and kerosene were irradiated with gamma-rays […] in a temperature-controlled cell of stainless steel with continuous agitation by bubbling. The maximum integrated radiation dose was equal to 285.3 kGr. The extractant samples were tested and the extraction characteristics were measured before and after the irradiation to determine a decrease of the distribution ratio DMe due to the radiological destruction of extractant components.

[5] = Solubility of crown ethers in water and nitric acid from extractants with different organic solvents
Method: The study of solubility of extractants according to the invention and the extractants containing similar crown ethers in other solvents in aqueous and nitrate solutions was carried out.
Taken for the tests were crown ethers containing DCH18C6 or DB21C7 in a concentration of about 0.1 mole/l in different organic solvents. The extractants were mixed with aqueous or nitrate solutions with a content of nitric acid 3 mole/l in a closed thermostatically controlled chamber for 3 hours. Then the obtained water-organic systems were separated. The aqueous part after settling down and filtering was analyzed for a content of crown ethers using photometric measurements.

[6] = Interaction of extractants with sodium (organic/aqueous phase concentration)
Method: The characteristics of the extractants according to the invention in the process of extraction of sodium from acidic aqueous solutions of high-level waste were determined. For this purpose, the concentration of sodium in the organic and aqueous phases containing extractants based on DTBDB18C6 or DCH18C6 or DB21C7 in a concentration about of 0.05 mol/l in fluoroheptanol n3 were analyzed.

[7] = Concentration of crown ether in extracted products, dynamic strontium extraction (7.1)
Text: (§1) A starting aqueous solution whose composition and concentration of the components are given in Table 3 for a solution No.1 was contacted with the extractant according to the invention containing 0.05 mole/l of DCH18C6 in a solvent containing 20% by volume of synthanol and 80% by volume of Fluoroheptanol n3 in a continuous countercurrent process on a facility with extractors such as “mixer-settler” devices with impulse agitation and phase transportation. The extraction included eight steps of extraction, two washing steps, eight re-extraction steps and two steps of regeneration of the reused extractant.
(§2) When running the facility, radiometric monitoring devices were used to control the concentration of strontium in the refined products, re-extracts and reclaims, as well as the concentration of the crown ethers in the extracted products.

[8] = Extraction of strontium in a dynamic countercurrent mode (7.1)
Text: as §1, §2

[9] = solvent 2,2-dihydrotrifluoroethyl pentafluoroethyl ether, H2O
[10] = solvent 2,2-dihydrotrifluoroethyl pentafluoroethyl ether, HNO3 3 mole/l
[11] = solvent Fluoroheptanol n3, HNO3 3 mole/l
[12] = solvent Tetrachloroethane, HNO3 3 mole/l, crown ether about 0.1 mole/l, 3 hours
[13] = solvent Trichlorethylene, HNO3 3 mole/l
[14] = solvent Trichlorobenzene, HNO3 3 mole/l
[15] = sodium in the aqueous phase 0.01 mol/l, crown ether about 0.05 mol/l in fluoroheptanol n3
[16] = sodium in the aqueous phase 0.1 mol/l, crown ether about 0.05 mol/l
[17] = sodium in the aqueous phase 0.2 mol/l, crown ether about 0.05 mol/l
[18] = sodium in the aqueous phase 0.4 mol/l, crown ether about 0.05 mol/l

## c1ccc2c(c1)OCCOCCOCCOc1ccccc1OCCOCCO2 [DB21C7, dibenzo-21-crown-7]
[1]; Re-extract
  Content of cesium in the extracted products in percent of the feedstock: 94.5% of the feedstock
[1]; Reclaim
  Content of cesium in the extracted products in percent of the feedstock: 4.15% of the feedstock
[1]; Refined product, 0.05 mol/l DB21C7, Synthanol 5% / Fluoroheptanol n3 95%, solution No.1
  Content of cesium in the extracted products in percent of the feedstock: 1.35% of the feedstock
[1]; dynamic conditions 7.2
  Cesium yield in a saltless product: about 95%
  Extraction of cesium: > 98%
[2]; nitric acid 0 mol/l
  Distribution ratios of sodium: 0
[2]; nitric acid 0.1 mol/l
  Distribution ratios of sodium: 0
[2]; nitric acid 0.5 mol/l
  Distribution ratios of sodium: 0.005
[2]; nitric acid 1.0 mol/l
  Distribution ratios of sodium: 0.01
[2]; nitric acid 3.0 mol/l
  Distribution ratios of sodium: 0.1
[2]; nitric acid 5.0 mol/l
  Distribution ratios of sodium: 0.12
[3]; same extractant conditions
  Distribution ratios, Pb: 0.02
  Distribution ratios, Mn: 0.04
  Distribution ratios, Ru: 0.004
  Distribution ratios, Cr: 0.02
  Distribution ratios, Cs: 1.8
  Distribution ratios, Sr: 0.02
  Distribution ratios, Zr: 0.038
  Distribution ratios, Ca: 0.02
  Distribution ratios, Ni: 0.03
  Distribution ratios, Fe: 0.014
  Distribution ratios, Na: 0.047
  Distribution ratios, Rare-earth: 0.04
[3]; initial 0.12 g/l, same extractant conditions
  Distribution ratios, Rb: 0.02
[3]; initial 0.3 g/l, same extractant conditions
  Distribution ratios, Pd: 0.03
[3]
  Distribution ratios, Ba: 1.02
  Distribution ratios, Al: 0.02
[4]; Cs
  Distribution ratio before irradiation: 2.83
[4]; Cs, dose 100.0 kGr (10^7 rad)
  Distribution ratio DMe after irradiation: 2.83
  Distribution ratio after irradiation, % of original: 100.0%
[4]; Cs, dose 285.3 kGr
  Distribution ratio DMe after irradiation: 2.65
  Distribution ratio after irradiation, % of original: 93.8%
[5]; [9]
  Concentration of crown ether in an aqueous phase: 0.071 mol/l × 10^−3
[5]; [10]
  Concentration of crown ether in an aqueous phase: 0.112 mol/l × 10^−3
[5]; solvent Fluoroheptanol n3, H2O
  Concentration of crown ether in an aqueous phase: <0.025 mol/l × 10^−3
[5]; [11]
  Concentration of crown ether in an aqueous phase: 0.068 mol/l × 10^−3
[5]; solvent Tetrachloroethane, H2O
  Concentration of crown ether in an aqueous phase: 0.173 mol/l × 10^−3
[5]; [12]
  Concentration of crown ether in an aqueous phase: 0.159 mol/l × 10^−3
[5]; solvent Tetrachloropropane
  Remarks: Insoluble
[5]; solvent Trichlorethylene, H2O
  Concentration of crown ether in an aqueous phase: 0.188 mol/l × 10^−3
[5]; [13]
  Concentration of crown ether in an aqueous phase: 0.218 mol/l × 10^−3
[5]; solvent Trichlorobenzene, H2O
  Concentration of crown ether in an aqueous phase: 0.168 mol/l × 10^−3
[5]; [14]
  Concentration of crown ether in an aqueous phase: 0.173 mol/l × 10^−3
[6]; [15]
  Sodium concentration in the organic phase: 0 mol/L
[6]; [16]
  Sodium concentration in the organic phase: 0.01 mol/L
[6]; [17]
  Sodium concentration in the organic phase: 0.018 mol/L
[6]; [18]
  Sodium concentration in the organic phase: 0.035 mol/L

## C1CCC2OCCOCCOC3CCCCC3OCCOCCOC2C1 (stereo not drawn) [DCH18C6, bicyclohexane-18-crown-6]
[7]; Re-extract
  Concentration of crown ether in the extracted products: 172 Mg/l
[7]; Reclaim
  Concentration of crown ether in the extracted products: 30 Mg/l
[7]; Refined product
  Concentration of crown ether in the extracted products: 80 Mg/l
[8]; Re-extract
  Contents of strontium in the extracted products, in percent of the feedstock: 99.55% of the feedstock
[8]; Reclaim
  Contents of strontium in the extracted products, in percent of the feedstock: <0.1% of the feedstock
[8]; Refined product, 0.05 mol/l DCH18C6, Synthanol 20% / Fluoroheptanol n3 80%, solution No.1
  Contents of strontium in the extracted products, in percent of the feedstock: 0.35% of the feedstock
[8]; dynamic mode 7.1
  Average concentrating factor: about 1.7 times
  Efficiency of the extraction of strontium: exceeds 99%
[2]; nitric acid 0 mol/l
  Distribution ratios of sodium: 0.1
[2]; nitric acid 0.1 mol/l
  Distribution ratios of sodium: 0.12
[2]; nitric acid 0.5 mol/l
  Distribution ratios of sodium: 0.12
[2]; nitric acid 1.0 mol/l
  Distribution ratios of sodium: 0.05
[2]; nitric acid 3.0 mol/l
  Distribution ratios of sodium: 0.02
[2]; nitric acid 5.0 mol/l
  Distribution ratios of sodium: 0.01
[3]; same extractant conditions
  Distribution ratios, Pb: 4.2
  Distribution ratios, Mn: 0.06
  Distribution ratios, Ru: 0.16
  Distribution ratios, Cr: 0.02
  Distribution ratios, Cs: 0.02
  Distribution ratios, Sr: 3.6
  Distribution ratios, Zr: 0.018
  Distribution ratios, Ca: 0.12
  Distribution ratios, Ni: 0.023
  Distribution ratios, Fe: 0.017
  Distribution ratios, Na: 0.01
  Distribution ratios, Rare-earth: 0.04
[3]
  Distribution ratios, Ba: 2.03
  Distribution ratios, Al: 0.03
[4]; Sr
  Distribution ratio before irradiation: 3.6
[4]; Sr, dose 100.0 kGr (10^7 rad)
  Distribution ratio DMe after irradiation: 3.4
  Distribution ratio after irradiation, % of original: 94.4%
[4]; Sr, dose 285.3 kGr
  Distribution ratio DMe after irradiation: 3.0
  Distribution ratio after irradiation, % of original: 83.3%
[5]; [9]
  Concentration of crown ether in an aqueous phase: 0.301 mol/l × 10^−3
[5]; [10]
  Concentration of crown ether in an aqueous phase: 0.344 mol/l × 10^−3
[5]; solvent Fluoroheptanol n3, H2O
  Concentration of crown ether in an aqueous phase: <0.027 mol/l × 10^−3
[5]; [11]
  Concentration of crown ether in an aqueous phase: 0.086 mol/l × 10^−3
[5]; solvent Tetrachloroethane, H2O
  Concentration of crown ether in an aqueous phase: 0.258 mol/l × 10^−3
[5]; [12]
  Concentration of crown ether in an aqueous phase: 0.139 mol/l × 10^−3
[5]; solvent Tetrachloropropane, H2O
  Concentration of crown ether in an aqueous phase: 0.968 mol/l × 10^−3
[5]; solvent Tetrachloropropane, HNO3 3 mole/l
  Concentration of crown ether in an aqueous phase: 1.72 mol/l × 10^−3
[5]; solvent Trichlorethylene, H2O
  Concentration of crown ether in an aqueous phase: 0.65 mol/l × 10^−3
[5]; [13]
  Concentration of crown ether in an aqueous phase: 0.94 mol/l × 10^−3
[5]; solvent Trichlorobenzene, H2O
  Concentration of crown ether in an aqueous phase: 1.142 mol/l × 10^−3
[5]; [14]
  Concentration of crown ether in an aqueous phase: 2.016 mol/l × 10^−3
[6]; [15]
  Sodium concentration in the organic phase: 0 mol/L
[6]; [16]
  Sodium concentration in the organic phase: 0.003 mol/L
[6]; [17]
  Sodium concentration in the organic phase: 0.005 mol/L
[6]; [18]
  Sodium concentration in the organic phase: 0.009 mol/L
